Measurements reported in patent US10543217B2, “Method of treating frailty” (Organext Research B.V., priority 2009, dated 2020).

Tests used:
Assay type in all cases: cell-based
[1] = test system: human skeletal muscle cells (hSkMC2); assay: Proliferation of human skeletal muscle cells, batch hSkMC2 (resazurin assay)
Protocol: (§1) Two different batches of human skeletal muscle cells or satellite cells (hSkMC1—obtained from a healthy person—and hSkMC2—obtained from a healthy person) were obtained from PromoCell (Heidelberg, Germany) and cultured in flasks according to the instructions by the provider. Cells were harvested and stored in liquid nitrogen until used for the experiments. Cells were not used at passage number higher than 15. For the experiments cells were cultured at 37° C. and 5% CO2 at a density of 3,500-7,000 cells/cm2 in basal medium (PromoCell) plus the addition of 5% charcoal (Sigma-Aldrich) treated fetal bovine serum (FBS) (PAA, Germany) using 24-well plates (Costar) til about 80% confluency.
(§2) Medium and hormones were replaced on day 1, 4 and 7. Proliferation was measured using the resazurin assay (Stern-Straeter et al., 2008). Statistical analysis of the proliferation data was performed with the Student's t-test.

[2] = test system: human skeletal muscle cells (hSkMC1); assay: Proliferation of human skeletal muscle cells, batch hSkMC1 (resazurin assay); conditions: for Effect on proliferation (FIG. 3a, in words): individual compounds and all 4 combinations, combinations P<0.001, except 100 nM nandrolone plus 100 nM P<0.05
Protocol: as §1, §2

[3] = test system: vitamin D receptor expression in human skeletal muscle cells (hSkMC1); assay: Vitamin D receptor expression by flow cytometry, hSkMC1 cells; conditions: compared with hSkMC2, data not shown
Protocol: as §1
(§3) Androgen and vitamin D receptor staining protocols with the subsequent visualization by flow cytometry methods were derived from the publications of Krishan et al. (2000) and Folgueira et al. (2000). […] All solutions further contained Tween 20 (Sigma Aldrich) as detergent to maintain the permeabilized status of the cells throughout the entire staining experiment. The staining in non-stimulated and stimulated cells were compared by determining the intensity of the staining in the cells as well as the staining in the % of cells. […] The increase in the % of stained cells beyond the setpoint of the marker (at 1% for background staining) was determined with and without hormonal treatment.

[4] = test system: vitamin D receptor (VD3R) expression in human skeletal muscle cells (hSkMC2); assay: Vitamin D receptor expression by flow cytometry, hSkMC2 cells; conditions: 5 days of treatment, flow cytometry (FIG. 2)
Protocol: as §1, §3

SMILES: C=C1/C(=C\C=C2/CCC[C@]3(C)[C@@H]([C@H](C)CCCC(C)(C)O)CC[C@@H]23)C[C@@H](O)C[C@@H]1O [dhvit D3, 1α,25-dihydroxyvitamin D3]
- Percentage increase (% Δ) in proliferation compared to control ([1]; 10 nM dhvit D3, 8 days): 1%
- Percentage increase (% Δ) in proliferation compared to control ([1]; 100 nM dhvit D3, 8 days): 8%
- Effect on proliferation (FIG. 3b, in words) ([1]; higher concentrations of 1α,25-dihydroxyvitamin D3, 4 combinations vs control P<0.05, except 100 nM nandrolone plus 10 nM P<0.001): an increase in proliferation
- Percentage increase (% Δ) in proliferation compared to control ([2]; 10 nM dhvit D3, 8 days): 1%
- Percentage increase (% Δ) in proliferation compared to control ([2]; 100 nM dhvit D3, 8 days): −5%
- Effect on proliferation (FIG. 3a, in words) [2]: no effect on proliferation
- Effect on vitamin D receptor expression [3]: less pronounced

SMILES: C[C@]12CC[C@H]3[C@@H](CCC4=CC(=O)CC[C@@H]43)[C@@H]1CC[C@@H]2O [nandrolone]
- Percentage increase (% Δ) in proliferation compared to control ([1]; 100 nM nandrolone, 8 days): 4%
- Percentage increase (% Δ) in proliferation compared to control ([1]; 1000 nM nandrolone, 8 days): 1%
- Percentage increase (% Δ) in proliferation compared to control ([2]; 100 nM nandrolone, 8 days): 3%
- Percentage increase (% Δ) in proliferation compared to control ([2]; 1000 nM nandrolone, 8 days): 1%
- Effect on proliferation (FIG. 3a, in words) [2]: no effect on proliferation
- Effect on vitamin D receptor expression [3]: less pronounced
- Change in number of cells with positive vitamin D receptor [4]: increases
